Reference: patent publication US8329645B2, “Polymyxin derivatives and uses thereof” (priority 2008, dated 2012)
Values after ≈ are worked out from the molar mass of the structure shown. Where a SMILES comes first, the peptide text is derived from it. Bridges are numbered along the chain shown (N, C = ends). [ ]: non-standard residue; d: D form. The star is where a group is joined. Decanoyl = CCCCCCCCCC(=O)*; Dab = NCC[C@H](N)C(=O)O

How the values were obtained:
E. coli CCUG 41421 = test system: E. coli CCUG 41421
Procedure: Polymyxin B sulfate (Sigma-Aldrich, St. Louis, Mo., USA) was used as a control. […] The bacterial test strains originated from ATCC (10 strains), CCUG (11 strains), and NCTC (3 strains). Fourteen (14) strains (the F-strains) were purchased from Mobidiag Ltd., Helsinki, Finland.
The inocula were prepared by adjusting the bacterial suspensions to a density equivalent to OD546 nm˜0.3 (˜10^8 CFU/ml˜0.5 McFarland) the yeast suspension to a density equivalent to OD546 nm˜0.75 (˜2×10^7 CFU/ml)._The suspensions were diluted to 10^7 CFU/ml. The plates were inoculated by using a Denley Multipoint Inoculator, 1 μl per spot corresponding to approx. 10^4 CFU/spot. Plates were incubated for 16-20 hours at 35° C.

Pseudomonas aeruginosa = assay type: cell-based
Procedure: Polymyxin B sulfate (Sigma-Aldrich, St. Louis, Mo., USA) was used as a control. […] Fourteen (14) strains (the F-strains) were purchased from Mobidiag Ltd., Helsinki, Finland. Besides bacteria, the MIC was also determined for the yeast Candida albicans (ATCC 28366 from ATCC). The inocula were prepared by adjusting the bacterial suspensions to a density equivalent to OD546 nm˜0.3 (˜10^8 CFU/ml˜0.5 McFarland) the yeast suspension to a density equivalent to OD546 nm˜0.75 (˜2×10^7 CFU/ml)._The suspensions were diluted to 10^7 CFU/ml. The plates were inoculated by using a Denley Multipoint Inoculator, 1 μl per spot corresponding to approx. 10^4 CFU/spot. Plates were incubated for 16-20 hours at 35° C. […] Both agents had good activity also against other polymyxin-susceptible strains of Enterobacteriaceae. […] S. aureus and C. albicans were resistant to the NAB peptides.

CCCCCCCCCC(=O)N[C@H](C(=O)N[C@H](CO)C(=O)N[C@H]1CCNC(=O)[C@H]([C@@H](C)O)NC(=O)[C@H](CCN)NC(=O)[C@H](CCN)NC(=O)[C@H](CC(C)C)NC(=O)[C@@H](Cc2ccccc2)NC(=O)[C@H](CCN)NC1=O)[C@@H](C)O [NAB 740, DA-Thr-DSer-cy[Dab-Dab-DPhe-Leu-Dab-Dab-Thr-]] (Decanoyl-T[dS][Dab][Dab][dF]L[Dab][Dab]T; lactam 3-C)
MIC (E. coli CCUG 41421): 2 µg/mL (≈ 1.81 µM)
MIC, range for Pseudomonas aeruginosa (Pseudomonas aeruginosa): 4 to 8 µg/mL
